In the OPERA property sets (Mansouri et al. 2018):
In brackets after ≈: the same amount, converted by molar mass.

| Structure (SMILES) | logP | other results |
| --- | --- | --- |
| CC(C)=C1OC(=O)N(c2cc(OC3CCCC3)c(Cl)cc2F)C1=O |  | solubility (25 °C): 0.000611 mM (≈ 0.216 µg/mL) |
| Cc1cc(C)nc(Nc2ccccc2)n1 |  | logD (pH 6.1): 2.84; solubility (pH 6.1, 25 °C): 0.607 mM (≈ 121 µg/mL) |
| COCCN(C(=O)CCl)c1c(C)cccc1C | 2.17 | solubility (20 °C): 8.59 mM (≈ 2200 µg/mL) |
| Cc1cccc(C)c1N(Cn1cccn1)C(=O)CCl | 2.13 |  |
| COc1nn(CSP(=S)(OC)OC)c(=O)s1 | 2.2 |  |
| Cc1cc(C)nc(NC(=O)NS(=O)(=O)c2ccccc2C(=O)OC2COC2)n1 |  | solubility (pH 5.1, 25 °C): 0.128 mM (≈ 52 µg/mL) |
| C=C/C=C\CC1=C(C)[C@@H](OC(=O)[C@@H]2[C@@H](C=C(C)C)C2(C)C)CC1=O | 5.9 |  |
| CC1CCCCN1CCCOC(=O)c1ccc(Cl)c(Cl)c1 (stereo not drawn) | 4.31 |  |
| O=C(Nc1ccc(Cl)cc1C(O)c1ccccc1)c1ccncc1 (stereo not drawn) | 3.13 |  |
| COC(=O)/C=C(\C)OP(=O)(OC)OC | 0.13 |  |
| Clc1ccc(CSC(Cn2cncn2)=Nc2ccc(Cl)cc2Cl)cc1 | 4.94 |  |
| CCOCOc1ccc(C(=O)Nc2cccc(Cl)c2Cl)cc1 | 4.3 | solubility (25 °C): 0.0027 mM (≈ 0.92 µg/mL) |
| CCOC(=O)c1cnn(C)c1S(=O)(=O)NC(=O)Nc1nc(OC)cc(OC)n1 | 1.3 |  |
| Fc1cccc(F)c1-c1nnc(-c2ccccc2Cl)nn1 | 3.3 |  |
| CCOc1nc(NC)nc(NC(=O)NS(=O)(=O)c2ccccc2C(=O)OC)n1 |  | logD (pH 5.0): 1.59; solubility (pH 5.0, 25 °C): 0.00414 mM (≈ 1.7 µg/mL) |
| CCCOCCN(C(=O)CCl)c1c(CC)cccc1CC | 4.08 | solubility (20 °C): 0.16 mM (≈ 50 µg/mL) |
| O=C([O-])C(F)(F)C(F)F.[Na+] | 1.32 | solubility (20 °C): 131 mM |
| C#CCN1CC(=O)N(COC(=O)[C@@H]2[C@@H](C=C(C)C)C2(C)C)C1=O | 2.9 | solubility (25 °C): 0.294 mM (≈ 93.5 µg/mL) |
| CCCCOCN(C(=O)CCl)c1c(CC)cccc1CC |  | solubility (20 °C): 0.0688 mM (≈ 21.4 µg/mL) |
| CCOc1ccccc1OS(=O)(=O)NC(O)=Nc1nc(OC)cc(OC)n1 | 2.89 | solubility (pH 5.0, 20 °C): 0.0653 mM (≈ 26 µg/mL) |
| CCOP(=S)(OCC)Oc1ccc(=O)n(-c2ccccc2)n1 | 3.2 | solubility (20 °C): 0.294 mM (≈ 100 µg/mL) |

| Structure (SMILES) | logP | other results |
| --- | --- | --- |
| CC1(C)CCC(Cc2ccc(Cl)cc2)C1(O)Cn1cncn1 (stereo not drawn) | 3.85 |  |
| CCCOC(=O)NCCCN(C)C |  | solubility (pH 7.0, 20 °C): 4780 mM (≈ 900000 µg/mL) |
| O=C(O)c1ccccc1C(=O)Nc1ccccc1 |  | solubility (20 °C): 0.0829 mM (≈ 20 µg/mL) |
| O=S(=O)(c1ccc(Cl)cc1)c1cc(Cl)c(Cl)cc1Cl | 4.61 | solubility (20 °C): 0.000219 mM (≈ 0.078 µg/mL) |
| CC(C)N(Cc1ccccc1)C(=O)C(C)(C)C | 3 | solubility (pH 7.0, 20 °C): 3.39 mM (≈ 790 µg/mL) |
| CCOP(=S)(Oc1cnc(C(C)(C)C)nc1)OC(C)C (stereo not drawn) |  | solubility (pH 7.0, 20 °C): 0.0173 mM (≈ 5.5 µg/mL) |
| COCC(=O)N(c1c(C)cccc1C)C(C)C(=O)OC (stereo not drawn) |  | solubility (24 °C): 36.4 mM (≈ 10200 µg/mL) |
| CCc1cccc(C)c1N(COC(C)C)C(=O)CCl | 3.5 |  |
| CC1CCCCC1NC(=O)Nc1ccccc1 (stereo not drawn) | 3.8 |  |
| CNC(=O)ON=C(SC)C(=O)N(C)C |  | solubility (25 °C): 1280 mM (≈ 280000 µg/mL) |
| Nc1c(Cl)cc([N+](=O)[O-])cc1Cl | 2.8 |  |
| CCOP(=S)(OCC)OC(Cl)C(Cl)(Cl)Cl (stereo not drawn) |  | solubility (20 °C): < 0.00298 mM |
| CC1(C)CCC(=Cc2ccc(Cl)cc2)C1(O)Cn1cncn1 (stereo not drawn) | 3.29 |  |
| CCOC(=O)Cn1c(=O)sc2cccc(Cl)c21 |  | solubility (20 °C): 0.173 mM (≈ 47 µg/mL) |
| C=C/C=C\CC1=C(C)[C@@H](OC(=O)[C@@H]2[C@@H](/C=C(\C)C(=O)OC)C2(C)C)CC1=O | 4.3 |  |
| FC(F)C(F)(F)OCC(Cn1cncn1)c1ccc(Cl)cc1Cl (stereo not drawn) | 3.56 |  |
| OC(c1ccc(Cl)cc1)(c1ccc(Cl)cc1)C(Cl)(Cl)Cl |  | solubility (25 °C): 0.00277 mM (≈ 1.03 µg/mL) |
| O=c1oc2ccccc2c(O)c1C1CC(c2ccc(-c3ccc(Br)cc3)cc2)Cc2ccccc21 (stereo not drawn) | 8.5 |  |
| COC(=O)[C@@H](C)N(C(=O)c1ccccc1)c1ccc(F)c(Cl)c1 | 3 |  |
| CS(=O)(=O)c1ccc(C(=O)C2C(=O)CCCC2=O)c(Cl)c1 |  | solubility (25 °C): 0.502 mM (≈ 165 µg/mL) |
| CON=C(Cc1cccnc1)c1ccc(Cl)cc1Cl | 3.7 |  |

| Structure (SMILES) | logP | other results |
| --- | --- | --- |
| O=C1CC(C(=O)O)CC(=O)C1=C(O)C1CC1 (stereo not drawn) |  | logD (pH 2.0): 1.8; solubility (pH 5.0, 20 °C): 5.8 mM (≈ 1300 µg/mL) |
| O=[n+]1[n-]c(-n2ccnc2)nc2ccc(Cl)cc21 | 2.04 | solubility (20 °C): 0.137 mM (≈ 34 µg/mL) |
| CNc1cnn(-c2cccc(C(F)(F)F)c2)c(=O)c1Cl |  | solubility (25 °C): 0.111 mM (≈ 33.7 µg/mL) |
| O=C(NC(=O)c1c(F)cccc1F)Nc1cc(Cl)c(OC(F)(F)C(F)C(F)(F)F)cc1Cl (stereo not drawn) | 5.12 |  |
| Cc1cccc(C)c1N(C(=O)CCl)C1CCOC1=O (stereo not drawn) | 1.39 | solubility (20 °C): 0.518 mM (≈ 146 µg/mL) |
| COC(=O)CSc1cc(/N=c2\sc(=O)n3n2CCCC3)c(F)cc1Cl | 3.77 |  |
| CCCCN(CC)c1c([N+](=O)[O-])cc(C(F)(F)F)cc1[N+](=O)[O-] | 5.29 | solubility (25 °C): 0.000298 mM (≈ 0.1 µg/mL) |
| CCN(Cc1ccc(Cl)nc1)C(=C[N+](=O)[O-])NC |  | solubility (pH 7.0, 20 °C): 3100 mM (≈ 840000 µg/mL) |
| CO/C=C(/C(=O)OC)c1ccccc1Oc1cc(Oc2ccccc2C#N)ncn1 | 2.5 | solubility (20 °C): 0.0149 mM (≈ 6 µg/mL) |
| COC(=O)c1c(Cl)nn(C)c1S(=O)(=O)NC(=O)Nc1nc(OC)cc(OC)n1 |  | solubility (pH 5.0, 20 °C): 0.0343 mM (≈ 14.9 µg/mL); logD (pH 7.0): -0.02 |
| COc1ccsc1CN(C(=O)CCl)c1c(C)cccc1C | 3.53 | solubility (20 °C): 0.034 mM (≈ 11 µg/mL) |
| COc1cc(OC)nc(N=C(O)NS(=O)(=O)Nc2ccccc2C(=O)C2CC2)n1 | 2.05 |  |
| CCS(=O)(=O)c1cccnc1S(=O)(=O)NC(=O)Nc1nc(OC)cc(OC)n1 |  | logD (pH 5.0): 0.29 |
| CCOc1ccc(C(C)(C)COCc2cccc(Oc3ccccc3)c2)cc1 |  | solubility (25 °C): < 2.66e-06 mM |
| N#Cc1c(Cl)cccc1Cl |  | solubility (20 °C): 0.105 mM (≈ 18 µg/mL) |
| CNC(=O)ON=C(C)C(C)SC (stereo not drawn) | 1.1 | solubility (20 °C): 184 mM (≈ 35000 µg/mL) |
| O=C(O)c1c(Cl)c(Cl)c(Cl)c(Cl)c1C(O)=Nc1cccc(Cl)c1Cl |  | solubility (26 °C): 0.0313 mM (≈ 14 µg/mL) |
| CCCCCCCCSC(=O)Oc1cc(Cl)nnc1-c1ccccc1 |  | solubility (20 °C): 0.00396 mM (≈ 1.5 µg/mL) |
| CNC(=O)Oc1cccc(N=CN(C)C)c1.Cl |  | solubility (25 °C): 3190 mM |
| CCOP(=O)(SC(C)CC)N1CCSC1=O (stereo not drawn) | 1.68 |  |
| CC(C)OC(=O)C(O)(c1ccc(Br)cc1)c1ccc(Br)cc1 | 5.4 |  |

| Structure (SMILES) | logP | other results |
| --- | --- | --- |
| C#CCOC(=O)[C@@H](C)Oc1ccc(Oc2ncc(Cl)cc2F)cc1 | 3.9 |  |
| Oc1ccc(Cl)cc1Cc1cc(Cl)ccc1O |  | solubility (25 °C): 0.111 mM (≈ 30 µg/mL) |
| COc1cc(OC)nc(Sc2cccc(Cl)c2C(=O)[O-])n1.[Na+] |  | logD (pH 5.0): 0.6 |
| CC(C)OC(=O)C(C(=O)OC(C)C)=C1SCCS1 |  | solubility (25 °C): 0.175 mM (≈ 50.9 µg/mL) |
| CCCCC(O)(Cn1cncn1)c1ccc(Cl)cc1Cl (stereo not drawn) | 3.9 |  |
| Cc1c(F)c(F)c(COC(=O)C2C(/C=C(\Cl)C(F)(F)F)C2(C)C)c(F)c1F (stereo not drawn) | 6.5 |  |
| CCN(Cc1c(F)cccc1Cl)c1c([N+](=O)[O-])cc(C(F)(F)F)cc1[N+](=O)[O-] | 5.45 |  |
| CCN(CC)C(=O)C(Cl)=C(C)OP(=O)(OC)OC | 0.79 |  |
| CCCCCC(C)OC(=O)COc1ccc(Cl)c2cccnc12 (stereo not drawn) | 5.03 | solubility (25 °C): 0.00176 mM (≈ 0.59 µg/mL) |
| COCC(=O)N(c1c(C)cccc1C)N1CCOC1=O | 0.8 | solubility (20 °C): 12.2 mM (≈ 3400 µg/mL) |
| CC(C)(C)c1cc([N+](=O)[O-])cc([N+](=O)[O-])c1O |  | solubility (pH 5.0, 20 °C): 0.0187 mM (≈ 4.5 µg/mL) |
| CC#CCOC(C)c1ccc(OC)c(OC)c1 (stereo not drawn) | 2.4 | solubility: 0.00427 mM (≈ 1 µg/mL) |
| O=C(NC(=O)c1c(F)cccc1F)Nc1cc(Cl)c(OC(F)(F)C(F)F)c(Cl)c1 | 5.68 |  |
| CC(C)(C)C(O)(CCc1ccc(Cl)cc1)Cn1cncn1 (stereo not drawn) | 3.7 |  |
| CC(C)NC(=O)N1CC(=O)N(c2cc(Cl)cc(Cl)c2)C1=O | 3 |  |
| CCOC(=O)C1CC(=O)C(=C(O)C2CC2)C(=O)C1 (stereo not drawn) | 1.6 |  |
| CC1(C)[C@H](C(=O)O[C@H](C#N)c2cccc(Oc3ccccc3)c2)[C@@H]1/C=C\C(=O)OC(C(F)(F)F)C(F)(F)F |  | solubility (25 °C): 3.69e-05 mM (≈ 0.02 µg/mL) |
| ClC=CCCl (mixture of isomers) | 2.04 |  |
